Consider 1 compound from ChEMBL document CHEMBL1125116 (J Med Chem, 1990).

The target in the experiment is D(2) dopamine receptor (Rattus norvegicus, UniProt P61169). Put plainly: Evaluated in vitro for the affinity towards Dopamine receptor D2 of rat striatal tissue.
Chain of D(2) dopamine receptor (P61169 whole entry): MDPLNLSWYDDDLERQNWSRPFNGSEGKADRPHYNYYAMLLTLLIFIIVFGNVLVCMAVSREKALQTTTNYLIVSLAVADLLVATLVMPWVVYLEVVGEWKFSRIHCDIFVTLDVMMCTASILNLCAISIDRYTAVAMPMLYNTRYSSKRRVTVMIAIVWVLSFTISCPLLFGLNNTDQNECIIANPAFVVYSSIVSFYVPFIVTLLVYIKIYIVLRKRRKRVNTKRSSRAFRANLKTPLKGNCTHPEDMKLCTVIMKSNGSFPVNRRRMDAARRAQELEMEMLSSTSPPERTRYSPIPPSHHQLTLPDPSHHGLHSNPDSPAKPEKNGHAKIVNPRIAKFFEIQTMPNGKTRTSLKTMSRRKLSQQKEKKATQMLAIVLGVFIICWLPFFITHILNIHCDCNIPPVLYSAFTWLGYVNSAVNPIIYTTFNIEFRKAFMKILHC

Turning to `CCN1CCC[C@H]1CNC(=O)c1c(OC)ccc(S(N)(=O)=O)c1I` [IODOSULPIRIDE], the Kd – broadly, the equilibrium constant for the complex coming apart – came to 1.5 nM.
